One data set deals with cells. Nature of the data set: Preliminary cytotoxicity tests. To be noted: preliminary tests by the inventors.
A short description of data set [1]: Stability of coloring agents in decellularization (Decell) solution. In kind it is physicochemical. The note with it: 0.5 mL of 1% w/v color solution in 50 mL Decell solution. On the procedure: A first set of experiments were conducted to determine the stability of various coloring agents within a decellularization solution (termed herein as “Decell solution”) used in the processing/manufacturing of Kerecis™ fish-skin-derived cellular scaffold products, which is made from the minimally processed skin of wild-caught Atlantic cod, as described in U.S. Pat. No. 8,613,957.
The Decell solution was prepared in accordance with EBL M222. 50 mL of the Decell solution was aliquoted into each of 7 separate plastic tubes securable with a respective lid. A first tube included only the Decell solution, acting as a control. A 0.5 mL aliquot of each of the 6 prepared color solutions was separately added to a corresponding tube containing 50 mL of Decell solution. Any reaction or visible change of the mixture was monitored over time.
The solutions in respective tubes with the respective coloring agents were monitored and documented by photographs at the start of the experiment, after 30 minutes, and after 24 hours of incubation.

As to `CN(C)c1ccc(C(=C2C=CC(=[N+](C)C)C=C2)c2ccc(N(C)C)cc2)cc1` [GV, gentian violet], the cytotoxicity entry with cells is “did not cause any cytotoxicity concern”.

For the compound `CN(C)c1ccc2nc3ccc(N(C)C)cc3[s+]c2c1.[Cl-]` [Methylene Blue, methylene blue], the cytotoxicity result with cells is “did not cause any cytotoxicity concern”. The “color of the Decell solution” value in data set [1] (after 24 hours) is given as “had all turned white or nearly white except the Decell solution with the added Methylene Blue”. Besides, the “fading of color in Decell solution” value in data set [1] (first 20 minutes) is “notable exception”.
